From patent US20210214341A1, “SUBSTITUTED PYRIDINYL AZETIDINONE DERIVATIVES FOR USE IN TREATING CANCER AND OTHER DISEASES” (The Board of Regents of the University of Texas System, priority 2018, published 2021)
Like-named read-outs stand apart in the source and are kept apart here.

Assays:
[1] = system: HPAF-II; assay: Cytotoxicity IC50 in HPAF-II cells; assay type: cell-based; conditions: Homo sapiens; HPAF-II cell line; read-out: IC50 (mean ± standard error)
Description: (§1) B. Cytotoxicity Studies: Determination of IC50 Values (Single Run) in Capan-2, HPAC. HPAF-II, and HS766T Cell Lines
(§2) Capan-2, HPAC. HPAF-H, and HS766T. The compounds A, D, E, G, and H were chosen randomly, out of twelve β-laclam molecules, to carry out this evaluation.

[2] = system: normal pancreatic ductal epithelial cells (ATCC CRL-4038); assay: SRB (Sulforhodamine B) assay in normal pancreatic ductal epithelial cells; assay type: cell-based; conditions: Epithelial cell, read-out: IC50 (NPC)
Description: (§3) FIGS. 1A-1B show the IC50 curves of the twelve investigational β-lactams in pancreatic cancer cells PANC-1 (ATCC CRL-1469) and normal pancreatic ductal epithelial cells (ATCC CRL-4038). The GraphPad Prism software was used to process the results. The IC50 values were determined by SRB (Sulforhodamine B) assay following standard procedure. PANC-1 cells were plated in 96 well plates and treated with 1, 10, 100, 1000 and 10,000 nM of each of the drugs in triplicate for 72 hrs. Cells were fixed, washed and stained with SRB dye, the stained cells were washed, and the dye solubilized. It was read using a plate reader at 565 nm. The IC50 values were calculated assuming that the 10 μM sample has reached saturation. Following similar way, IC50 values were determined for normal pancreatic ductal epithelial cells.
(§4) As mentioned earlier, PANC-1 is referred to generically as the “gold standard of pancreatic cancers” representing as it does almost total resistance to GEM, the first line treatment currently used in clinical situations. Pancreatic cancer cells PANC-1 (ATCC CRL-1469) and normal pancreatic ductal epithelial cells (ATCC CRL-4038) were used in this study. The GraphPad Prism software was used to process the results. […] Cells were fixed, washed and stained with SRB dye, the stained cells were washed, and the dye solubilized. It was read using a plate reader at 565 nm. The IC50 values were calculated assuming that the 10 μM sample has reached saturation. Following similar way, IC50 values were determined for normal pancreatic ductal epithelial cells.

[3] = system: HS 766T; assay: Cytotoxicity IC50 in HS 766T cells; assay type: cell-based; conditions: Homo sapiens, Hs766T; HS 766T cell line; read-out: IC50 (mean ± standard error)
Description: as §1, §2

[4] = system: pancreatic cancer cells PANC-1 (ATCC CRL-1469); assay: SRB (Sulforhodamine B) assay in PANC-1 cells; assay type: cell-based; conditions: Homo sapiens, read-out: IC50 (PANC-1)
Description: as §3, §4

[5] = system: PANC-1 cells; assay: Flow cytometric cell cycle analysis; assay type: cell-based, human; conditions: tested for 24, 48 and 72 hrs
Description: The noise was cleared. […] After 72 hrs all the cells (including floaters) were collected, the adhered cells were trypsinized and collected as well. The cells were then centrifuged in a 50 mL centrifuge tube. The pellet was washed with PBS and reconstituted in 500 μL PBS. The cells were then fixed in ice cold ethanol by adding the ethanol dropwise while gently vortexing the cells. Stored at 4° C. for overnight. The cells were then centrifuged, and the pellet reconstituted in Guava cell cycle reagent and analyzed in a Guava flow cytometer. A similar experiment was conducted with normal pancreatic ductal epithelial cells (NPC) and the drug treatment was done according to the IC50 values observed in the 2D assay conducted on them (Table E). Please note that 2N represents G0/G1 and 4N for G2 phases.
After 72 hrs all the cells (including floaters) were collected, the adhered cells were trypsinized and collected as well. The cells were then centrifuged in a 50 mL centrifuge tube. The pellet was washed with PBS and reconstituted in 500 μL PBS. The cells were then fixed in ice cold ethanol by adding the ethanol dropwise while gently vortexing the cells. […] The cells were then centrifuged, and the pellet reconstituted in Guava cell cycle reagent and analyzed in a Guava flowcytometer. […] First set of data with PANC-1 cells were analyzed by using FlowJo software, the noise was cleared (FIG. 3). […]

[6] = system: PANC-1 tumorspheres; assay: 3D-tumorsphere formation assay; assay type: cell-based, human; conditions: for IC50: Homo sapiens, tumorspheres larger than 100 micrometers counted after 144 hrs
Description: Number of tumorspheres formed can be used to distinguish the efficacy of different anticancer drugs in a more physically acceptable method than 2D culture. Based on selectivity and toxicity towards PANC-1 cells in comparison to normal pancreatic ductal epithelial cells (Table D), six compounds (A, B, C, E, F, and G) were chosen for the 3D-tumorsphere formation assay. The assay was carried out by following the protocol developed by Johnson et al., (2013). PANC-1 cells (5000) were plated as single cells in Corning ultra-low attachment 24 well plates in 0.5 ml DMEM+10% FBS. The cells were grown in a humidified atmosphere of 5% CO2 for 168 hrs. 0.1 ml Media was added on 72nd and 144 hrs. The β-lactams were dissolved in DMSO and maintained at −20° C. On the day of assay, on the addition of media, the drugs were freshly diluted in media. The final concentrations of drugs were 0, 1 nM, 10 nM, 100 nM, 1 uM, 10 μM. After 144 hours the total number tumorspheres that were larger than 100 micrometers were counted in a field of 1 mm×1 mm at 10× magnification in a bright field microscope. The data was plotted and the IC50 value was calculated.
3D-tumorsphere formation assay is considered to be a fast and economical intermediary step between in vitro and in vivo biological evaluations. A tumorsphere is a solid, spherical formation developed from the proliferation of a single cancer stem/progenitor cell in 3D culture. These cells are easily distinguishable from single or aggregated as they appear to become fused together and individual cells cannot be appearing to become fused together and individual cells cannot be identified. The size can vary from less than 50 micrometers to 250 micrometers. The number of tumorspheres formed can be used to characterize the cancer stem cell population within different in vitro cultured cancer cell lines. The number of tumorspheres formed can also be used to distinguish the efficacy of different anticancer drugs in a more physically acceptable method than 2D culture. Based on selectivity and toxicity towards PANC-1 cells in comparison to normal pancreatic ductal epithelial cells (Table D), six compounds (A, B, C, E, F, and G) were chosen for the 3D-tumorsphere formation assay. The assay was carried out by following the protocol developed by Johnson et al., (2013). […] The below steps were followed to accomplish the assay. • 5000 PANC-1 cells were plated as single cells in Corning ultra-low attachment 24 well plates in 0.5 ml DMEM+10% FBS. • Cells were grown in a humidified atmosphere of 5% CO2 for 168 hrs. 0.1 ml Media was added on 72nd and 144 hrs. • Drugs were dissolved in DMSO and maintained at −20° C. On the day of assay, on the addition of media, the drugs were freshly diluted in media. • The final concentrations of drugs were 0, 1 nM, 10 nM, 100 nM, 1 μM, 10 μM. • After 144 hrs the total number tunorspheres that were larger than 100 micrometers were counted in a field of 1 mm×1 mm at 10× magnification in a bright field microscope. The data was plotted and the IC50 value was calculated.

[7] = system: pancreatic cancer cells PANC-1 (ATCC CRL-1469); conditions: cited from earlier work
[8] = 2D-culture, SRB, average of 3 runs
[9] = PANC-1, 2D-culture, SRB, 72 hrs, average of 3 runs

CS(=O)(=O)O[C@@H]1C(=O)N(c2cc3c4ccccc4ccc3c3ccccc23)[C@H]1c1ccc(F)cn1 (racemic) [(±)-Trans-N-(chrysen-6-yl)-2-(5-fluoropyridin-2-yl)-4-oxoazetidin-3-yl methanesulfonate]
melting point: 253 to 254 °C

C[Si](C)(C)CCS(=O)(=O)O[C@@H]1C(=O)N(c2cc3c4ccccc4ccc3c3ccccc23)[C@H]1c1ccc(F)cn1 (racemic) [H, (±)-Trans-N-(chrysen-6-yl)-2-(5-fluoropyridin-2-yl)-4-oxoazetidin-3-yl 2-(trimethylsilyl)ethane-1-sulfonate]
IC50 [1]: 660 ± 120 nM
IC50 [2, 8]: 48.5 nM
IC50 [3]: 790 ± 120 nM
melting point: 210 to 211 °C
IC50 [4, 9]: 30.4 nM

CN(C)S(=O)(=O)O[C@@H]1C(=O)N(c2cc3c4ccccc4ccc3c3ccccc23)[C@H]1c1ccc(F)cn1 (racemic) [J, (±)-Trans-N-(chrysen-6-yl)-2-(5-fluoropyridin-2-yl)-4-oxoazetidin-3-yl dimethylsulfamate]
IC50 [2, 8]: 1050 nM
melting point: 196 to 198 °C
IC50 [4, 9]: 212 nM

O=C1[C@@H](OS(=O)(=O)N2CCCC2)[C@H](c2ccc(F)cn2)N1c1cc2c3ccccc3ccc2c2ccccc12 (racemic) [Compound I, (±)-Trans-N-(chrysen-6-yl)-2-(5-fluoropyridin-2-yl)-4-oxoazetidin-3-yl pyrrolidine-1-sulfonate]
IC50 [2, 8]: 201 nM
melting point: 205 to 206 °C
IC50 [4, 9]: 58.6 nM

CN1CCN(S(=O)(=O)O[C@@H]2C(=O)N(c3cc4c5ccccc5ccc4c4ccccc34)[C@H]2c2ccc(F)cn2)CC1 (racemic) [G, (±)-Trans-N-(chrysen-6-yl)-2-(5-fluoropyridin-2-yl)-4-oxoazetidin-3-yl 4-methylpiperazine-1-sulfonate]
IC50 [1]: 1180 ± 260 nM
IC50 [2, 8]: 8.43 nM
melting point: 146 to 147 °C
IC50 [4, 9]: 2.69 nM

O=C=NS(=O)(=O)O[C@@H]1C(=O)N(c2cc3c4ccccc4ccc3c3ccccc23)[C@H]1c1ccc(F)cn1 (racemic) [K, (±)-Trans-N-(chrysen-6-yl)-2-(5-fluoropyridin-2-yl)-4-oxoazetidin-3-yl sulfurisocyanatidate]
IC50 [2]: 416 nM
IC50 ([4]; PANC-1, 72 h): 29.6 nM

Cc1ccc(S(=O)(=O)O[C@@H]2C(=O)N(c3cc4c5ccccc5ccc4c4ccccc34)[C@H]2c2ccc(F)cn2)cc1 (racemic) [L, (±)-Trans-N-(chrysen-6-yl)-2-(5-fluoropyridin-2-yl)-4-oxoazetidin-3-yl 4-methylbenzenesulfonate]
time of maximum cell cycle blockage [5]: 72 h
IC50 [6]: 4.57 nM
IC50 [2, 8]: 13.3 nM
IC50 [4, 9]: 3.38 nM

O=C1[C@@H](OS(=O)(=O)C2CC2)[C@H](c2ccc(F)cn2)N1c1cc2c3ccccc3ccc2c2ccccc12 (racemic) [F, (±)-Trans-N-(chrysen-6-yl)-2-(5-fluoropyridin-2-yl)-4-oxoazetidin-3-yl cyclopropanesulfonate]
activity in 3D-tumorsphere formation assay compared with 2D-culture [6]: higher activity in 3D-tumorphere formation assay than 2D-culture
IC50 [6]: 19.1 nM
IC50 [2, 8]: 356 nM
melting point: 180 to 181 °C
IC50 [4, 9]: 27.2 nM

N#CC1CN(S(=O)(=O)O[C@@H]2C(=O)N(c3cc4c5ccccc5ccc4c4ccccc34)[C@H]2c2ccc(F)cn2)C1 (racemic) [Compound C, (±)-Trans-N-(chrysen-6-yl)-2-(5-fluoropyridin-2-yl)-4-oxoazetidin-3-yl 3-cyanoazetidine-1-sulfonate]
activity in 3D-tumorsphere formation assay compared with 2D-culture [6]: higher activity in 3D-tumorphere formation assay than 2D-culture
IC50 [6]: 2.33 nM
IC50 [2, 8]: 42.5 nM
melting point: 212 to 213 °C
IC50 [4, 9]: 3.52 nM

CC(C)N(C)S(=O)(=O)O[C@@H]1C(=O)N(c2cc3c4ccccc4ccc3c3ccccc23)[C@H]1c1ccc(F)cn1 (racemic) [E, (±)-Trans-N-(chrysen-6-yl)-2-(5-fluoropyridin-2-yl)-4-oxoazetidin-3-yl isopropyl(methyl)sulfamate]
activity in 3D-tumorsphere formation assay compared with 2D-culture [6]: higher activity in 3D-tumorphere formation assay than 2D-culture
IC50 [6]: 6.25 nM
IC50 [1]: 500 ± 160 nM
IC50 [2, 8]: 424 nM
IC50 [3]: 40 nM
melting point: 166 to 167 °C
IC50 [4, 9]: 8.65 nM

CS(=O)(=O)O[C@H]1C(=O)N(c2cc3c4ccccc4ccc3c3ccccc23)C1c1ccccn1 (stereo partly drawn) [TX-262]
IC50 ([7]; TX-262, from Banik et al., WO 2012/103456, read-out: IC50 (PANC-1)): 430 nM
IC50 ([7]; TX-262, read-out: PANC-1 cell lines IC50): 430 nM

Cc1ccc(S(=O)(=O)O[C@@H]2C(=O)N(c3cc4c5ccccc5ccc4c4ccccc34)[C@H]2c2ccc(F)cn2)cc1 (racemic) [(±)-Trans-N-(chrysen-6-yl)-2-(5-fluoropyridin-2-yl)-4-oxoazetidin-3-yl 4-methylbenzenesulfonate]
melting point: 220 to 221 °C
